Where a name gives a salt, the structure may show the parent alone.
Tested on: Acinetobacter baumannii ATCC17961
Assay: 90% growth inhibitory concentration (IC90) determination, antimicrobial susceptibility testing
Type: cell-based
Details: 90% growth inhibition, Iso-Sensitest broth, OD 600 nm over 16 h, 35±2° C.; read-out: ATCC 17961 IC90
Procedure: Antimicrobial Susceptibility Testing:
90% Growth Inhibitory Concentration (IC90) Determination
The in vitro antimicrobial activity of the compounds was determined according to the following procedure:
The assay used a 10-points Iso-Sensitest broth medium to measure quantitatively the in vitro activity of the compounds against Acinetobacter baumannii ATCC17961 and ATCC17978.
Stock compounds in DMSO were serially twofold diluted (e.g. range from 50 to 0.097 μM final concentration) in 384 wells microtiter plates and inoculated with 49 μl the bacterial suspension in Iso-Sensitest medium to have a final cell concentration of ˜5×10^(5) CFU/ml in a final volume/well of 50 ul/well. Microtiter plates were incubated at 35±2° C.
Bacterial cell growth was determined with the measurement of optical density at λ=600 nm each minutes over a time course of 16 h. Growth inhibition was calculated during the logarithmic growth of the bacterial cells with determination of the concentration inhibiting 50% (IC50) and 90% (IC90) of the growth.
Table 2 provides the 90% growth inhibitory concentrations (IC90) in micromoles per liter of the compounds of present invention obtained against the strain Acinetobacter baumannii ATCC17961.

IC90	SMILES
854 nM	CCc1cc(Nc2nccn3c(-c4ccc(OC)c(F)c4F)cnc23)ccc1C(=O)NCC[C@H](NC(=O)C1CC[N+](C)(CC2CNC2)CC1)C(=O)OC (mixture of isomers) [Example 121, Methyl (2S)-2-[[1-(azetidin-3-ylmethyl)-1-methyl-piperidin-1-ium-4-carbonyl]amino]-4-[[4-[[3-(2,3-difluoro-4-methoxy-phenyl)imidazo[1,2-a]pyrazin-8-yl]amino]-2-ethyl-benzoyl]amino]butanoate formate 2,2,2-trifluoroacetate (Mixed Salt)]
5000 nM	CCc1cc(Nc2nccn3c(-c4ccc(OC)c(F)c4F)cnc23)ccc1C(=O)NCC[C@H](NC(=O)C1CC[N+](C)(CC2CNC2)CC1)C(=O)OC (mixture of isomers) [Example 123, Methyl (2S)-2-[[1-(azetidin-3-ylmethyl)-1-methyl-piperidin-1-ium-4-carbonyl]amino]-4-[[4-[[3-(2,3-difluoro-4-methoxy-phenyl)imidazo[1,2-a]pyrazin-8-yl]amino]-2-ethyl-benzoyl]amino]butanoate formate 2,2,2-trifluoroacetate (Mixed Salt)]

Same assay, conditions: Acinetobacter baumannii, ATCC17961, 16 h, 90% growth inhibition, Iso-Sensitest broth, OD 600 nm over 16 h, 35±2° C.; read-out: ATCC 17961 IC90

IC90	SMILES
682 nM	CCc1cc(Nc2nccn3c(-c4ccc(OC)c(F)c4F)cnc23)ccc1C(=O)NC[C@H](NC(=O)C1CC[N+](C)(CC2CNC2)CC1)C(=O)OC (mixture of isomers) [Example 120, Methyl (2S)-2-[[1-(azetidin-3-ylmethyl)-1-methyl-piperidin-1-ium-4-carbonyl]amino]-3-[[4-[[3-(2,3-difluoro-4-methoxy-phenyl)imidazo[1,2-a]pyrazin-8-yl]amino]-2-ethyl-benzoyl]amino]propanoate formate 2,2,2-trifluoroacetate (Mixed Salt)]
1110 nM	CCc1cc(Nc2nccn3c(-c4ccc(OC)c(F)c4F)cnc23)ccc1C(=O)N[C@@H](CNC(=O)C1CC[N+](C)(CC2CNC2)CC1)C(=O)OC (mixture of isomers) [Example 122, Methyl (2S)-3-[[1-(azetidin-3-ylmethyl)-1-methyl-piperidin-1-ium-4-carbonyl]amino]-2-[[4-[[3-(2,3-difluoro-4-methoxy-phenyl)imidazo[1,2-a]pyrazin-8-yl]amino]-2-ethyl-benzoyl]amino]propanoate formate 2,2,2-trifluoroacetate (Mixed Salt)]
1220 nM	CCc1cc(Nc2nccn3c(-c4ccc(OC)c(F)c4F)cnc23)ccc1C(=O)N[C@H]1[C@@H]2C[N+](C)(CC3CNC3)C[C@@H]21 (mixture of isomers) [Example 137, 4-[[3-(2,3-Difluoro-4-methoxy-phenyl)imidazo[1,2-a]pyrazin-8-yl]amino]-2-ethyl-N-[rac-(1S,5R)-3-(azetidin-3-ylmethyl)-3-methyl-3-azoniabicyclo[3.1.0]hexan-6-yl]benzamide bis(2,2,2-trifluoroacetate)]
1580 nM	C[N+](C)(C)CC(=O)NCCNC(=O)c1ccc(Nc2nccn3c(-c4c[nH]nc4C(F)(F)F)cnc23)cc1Cl [Example 58, [2-[2-[[2-Chloro-4-[[3-[3-(trifluoromethyl)-1H-pyrazol-4-yl]imidazo[1,2-a]pyrazin-8-yl]amino]benzoyl]amino]ethylamino]-2-oxo-ethyl]-trimethyl-ammonium formate]
41 nM	COc1ccc(-c2cnc3c(Nc4ccc(C(=O)N[C@H]5C[C@@H](NC(=O)C[N+](C)(C)C)C5)c(Cl)c4)nccn23)c(F)c1F [Example 59, [2-[[3-[[2-Chloro-4-[[3-(2,3-difluoro-4-methoxy-phenyl)imidazo[1,2-a]pyrazin-8-yl]amino]benzoyl]amino]cyclobutyl]amino]-2-oxo-ethyl]-trimethyl-ammonium formate]
166 nM	COc1ccc(-c2cnc3c(Nc4ccc(C(=O)NC5CCN(C(=O)C[N+](C)(C)C)CC5)c(C)c4)nccn23)c(F)c1F [Example 60, 2-(4-(4-((3-(2,3-Difluoro-4-methoxyphenyl)imidazo[1,2-a]pyrazin-8-yl)amino)-2-methylbenzamido)piperidin-1-yl)-N,N,N-trimethyl-2-oxoethan-1-aminium Chloride]

The next lines start with the compound.

SMILES	IC90
CCc1cc(Nc2nccn3c(-c4ccc(Oc5ncccn5)c(F)c4F)cnc23)ccc1C(=O)NCCCNC(=O)C1CC[N+](C)(CC2CCNC2)CC1 (centres unmarked) [Example 3, N-[3-[[4-[[3-(2,3-difluoro-4-pyrimidin-2-yloxy-phenyl)imidazo[1,2-a]pyrazin-8-yl]amino]-2-ethyl-benzoyl]amino]propyl]-1-methyl-1-(pyrrolidin-3-ylmethyl)piperidin-1-ium-4-carboxamide Formate]	484 nM
CCc1cc(Nc2nccn3c(-c4cn(CC#N)nc4C(F)(F)F)cnc23)ccc1C(=O)NCCOCC[N+]1(CC#N)CCCC1 [Example 4, 1-(Cyanomethyl)-1-(2-(2-(4-((3-(1-(cyanomethyl)-3-(trifluoromethyl)-1H-pyrazol-4-yl)imidazo[1,2-a]pyrazin-8-yl)amino)-2-ethylbenzamido)ethoxy)ethyl)pyrrolidin-1-ium Formate]	267 nM
C[N+](C)(C)CC(=O)NCCCNC(=O)c1ccc(Nc2nccn3c(-c4c[nH]nc4C(F)(F)F)cnc23)cc1Cl [Example 7, [2-[3-[[2-Chloro-4-[[3-[3-(trifluoromethyl)-1H-pyrazol-4-yl]imidazo[1,2-a]pyrazin-8-yl]amino]benzoyl]amino]propylamino]-2-oxo-ethyl]-trimethyl-ammonium Formate]	1160 nM
CCc1cc(Nc2nccn3c(-c4cn(CC(F)F)nc4C(F)(F)F)cnc23)ccc1C(=O)NCCCCC[N+](C)(CC(=O)O)CC1CNC1 (centres unmarked) [Example 8, azetidin-3-ylmethyl-(carboxymethyl)-[5-[[4-[[3-[1-(2,2-difluoroethyl)-3-(trifluoromethyl)pyrazol-4-yl]imidazo[1,2-a]pyrazin-8-yl]amino]-2-ethyl-benzoyl]amino]pentyl]-methyl-ammonium Formate]	600 nM
CCc1cc(Nc2nccn3c(-c4ccc(OC(F)F)c(F)c4F)cnc23)ccc1C(=O)N1CCN(C(=O)C2CC[N+](C)(CC(N)=O)CC2)CC1 (centres unmarked) [Example 9, 1-(2-amino-2-oxoethyl)-4-(4-(4-((3-(4-(difluoromethoxy)-2,3-difluorophenyl)imidazo[1,2-a]pyrazin-8-yl)amino)-2-ethylbenzoyl)piperazine-1-carbonyl)-1-methylpiperidin-1-ium Formate]	63.5 nM
CCc1cc(Nc2nccn3c(-c4ccc(OC(F)F)c(F)c4F)cnc23)ccc1C(=O)NCCC1CC[N+](C)(CC2CNC2)CC1 (centres unmarked) [Example 10, N-[2-[1-(azetidin-3-ylmethyl)-1-methyl-piperidin-1-ium-4-yl]ethyl]-4-[[3-[4-(difluoromethoxy)-2,3-difluoro-phenyl]imidazo[1,2-a]pyrazin-8-yl]amino]-2-ethyl-benzamide Diformate]	157 nM
CCc1cc(Nc2nccn3c(-c4ccc(OC)c(F)c4F)cnc23)ccc1C(=O)NCCCCC[N+](C)(CCCCCN)CC(=O)O (centres unmarked) [Example 11, 5-Aminopentyl-(carboxymethyl)-[5-[[4-[[3-(2,3-difluoro-4-methoxy-phenyl)imidazo[1,2-a]pyrazin-8-yl]amino]-2-ethyl-benzoyl]amino]pentyl]-methyl-ammonium 2,2,2-trifluoroacetate]	131 nM
COc1ccc(-c2cnc3c(Nc4ccc(C(=O)N5CCN(C(=O)C[N+](C)(C)C)CC5)c(Cl)c4)nccn23)c(F)c1F [Example 12, 2-(4-(2-Chloro-4-((3-(2,3-difluoro-4-methoxyphenyl)imidazo[1,2-a]pyrazin-8-yl)amino)benzoyl)piperazin-1-yl)-N,N,N-trimethyl-2-oxoethan-1-aminium Iodide]	44.7 nM
COc1ccc(-c2cnc3c(Nc4cc(C)c(C(=O)NCCOCC[N+](C)(C)C)c(F)c4)nccn23)c(F)c1F [Example 18, 2-(2-(4-((3-(2,3-Difluoro-4-methoxyphenyl)imidazo[1,2-a]pyrazin-8-yl)amino)-2-fluoro-6-methylbenzamido)ethoxy)-N,N,N-trimethylethan-1-aminium Hydrogen Carbonate]	336 nM
COc1ccc(-c2cnc3c(Nc4ccc(C(=O)N5CCN(C(=O)[C@@H]6C[C@@H](O)C[N+]6(C)C)CC5)c(C)c4)nccn23)c(F)c1F [Example 55, (2S,4R)-2-(4-(4-((3-(2,3-Difluoro-4-methoxyphenyl)imidazo[1,2-a]pyrazin-8-yl)amino)-2-methylbenzoyl)piperazine-1-carbonyl)-4-hydroxy-1,1-dimethylpyrrolidin-1-ium Formate]	132 nM
Cc1cc(Nc2nccn3c(-c4ccc(OCC#N)c(F)c4F)cnc23)ccc1C(=O)N1CCN(C(=O)C[N+](C)(C)C)CC1 [Example 56, [2-[4-[4-[[3-[4-(Cyanomethoxy)-2,3-difluorophenyl]imidazo[1,2-a]pyrazin-8-yl]amino]-2-methylbenzoyl]piperazin-1-yl]-2-oxoethyl]-trimethylazanium Iodide]	59.6 nM
Cc1cc(Nc2nccn3c(-c4ccc(OC(F)F)cc4)cnc23)ccc1C(=O)N(C)CCC1CC[N+](C)(CCCC(=O)O)CC1 (centres unmarked) [Example 57, 4-[4-[2-[[4-[[3-[4-(Difluoromethoxy)phenyl]imidazo[1,2-a]pyrazin-8-yl]amino]-2-methylbenzoyl]-methylamino]ethyl]-1-methylpiperidin-1-ium-1-yl]butanoic acid Hydrochloride]	2180 nM

Reference: patent US20230141600A1, “IMIDAZOPYRAZINE DERIVATIVES” (priority 2020, published 2023)
